{
  "source": "patent US20080090895A1",
  "about": "“Novel Pharmaceutical Composition And Their Uses Thereof For Controlling The Different Forms Of Addiction To Drugs” (Trimaran Limited, priority 2004, published 2008)",
  "key": {"male mice of OF1 strain [1]": {"system": "male mice of OF1 strain", "assay": "Measurement of the locomotor activity", "format": "in vivo"}, "male mice of OF1 strain [2]": {"system": "male mice of OF1 strain", "assay": "Conditioned preference of place: measurement of the psychic dependency", "format": "in vivo", "description": "(§1) The animals used in this study are male mice of OF1 strain weighing about 20 g at the start of the experiments (Charles River, France). They live in an environment whose daily lighting cycle (07:30 h; 17:30 h) is constant throughout the year, and the temperature is maintained at about 22° C. The mice have free access to water and food, and the experiments are performed in accordance with the international rules on ethics in animal experimentation.\n(§2) The animals are treated chronically via the intraperitoneal route (IP) with amisulpride or physiological saline. The injections are performed twice a day, with an interval of about eight hours between each administration, over a period ranging between five days and three weeks. […] RB101 is administered on the day of the test intravenously (IV), 10 minutes before the start of the test (except for the measurements of locomotor activity performed immediately after injection).\n3.4 Conditioned Preference of Place: Measurement of the Psychic Dependency\nThe apparatus for conditioned preference of place consists of a box divided into three separate compartments: a black compartment with a smooth floor, a black and white stripy compartment with a rough floor, and a neutral central compartment.\nThe Test Proceeds in 3 Phases:\n• a pretest phase: the animal is placed in the neutral central compartment and has free access to the three compartments of the apparatus for 20 minutes. The time spent in each compartment is recorded using a camera connected to a computer. The mice showing a spontaneous preference for one of the compartments (i.e. spending more than 75% of the allotted time in one of the side compartments) are removed from the experiment.\nAfter this first session, the animals are randomized in order to assign a treatment to them (morphine or physiological saline, SC) and the compartment in which they will receive the drug (black or black and white stripy compartment). […]"}, "male mice of OF1 strain [3]": {"system": "male mice of OF1 strain", "conditions": "Baamonde et al., 1992; Browne, 1980; cited from earlier work"}, "male mice of OF1 strain [4]": {"system": "male mice of OF1 strain", "assay": "Measurement of the analgesia by the hotplate test", "format": "in vivo", "description": "as §1, §2\n3.2 Measurement of the Analgesia by the Hotplate Test\nThe mice are placed individually inside a cylinder, on a plate heated to 52±1° C. by a water circuit. The lag time for the jumping of the mice is measured, the value 100 of the percentage of analgesia corresponding to a time limited to 240 seconds in order to avoid skin lesions. The test is performed 10 minutes after injection of RB101 (5 mg/kg, IV) or of the vehicle. The results are expressed as a percentage of analgesia calculated by means of the following formula: (mean of the jumping lag times for the treated group—mean of the jumping lag times for the control group)/(240−mean of the jumping lag times for the control group)×100. The results are expressed as mean ±sem."}, "male mice of OF1 strain [5]": {"system": "male mice of OF1 strain", "assay": "Test of forced swimming (Porsolt's test): model of depression", "format": "in vivo", "conditions": "0.25 mg/kg, IV", "description": "as §1, §2\n3.3 Test of Forced Swimming (Porsolt's Test): Model of Depression\nThe mice are placed individually in a cylindrical container filled to a height of 15 cm with water, the water being at room temperature. After a delay of 2 minutes, the total immobile time of the animal is measured for 4 minutes. The movements necessary for the animal to keep its head above water are not counted."}, "male mice of OF1 strain [6]": {"system": "male mice of OF1 strain", "conditions": "Baamonde et al., 1992; cited from earlier work"}},
  "note": "Where a name gives a salt, the structure may show the parent alone.",
  "data": [
    {"compound": "CCN1CCCC1CNC(=O)c1cc(S(=O)(=O)CC)c(N)cc1OC", "note": "(stereo not drawn) [amisulpride]", "values": [
      {"measurement": "dose at which the reduction in locomotor activity is significant", "setting": "male mice of OF1 strain [1]; doses tested 0.5, 2, 10, 20 and 50 mg/kg", "result": "≥ 10", "unit": "mg/kg"}
    ]},
    {"compound": "CN1CC[C@]23c4c5ccc(O)c4O[C@H]2[C@@H](O)C=C[C@H]3[C@H]1C5.Cl", "note": "[morphine, morphine hydrochloride]", "values": [
      {"measurement": "conditioned place preference (test 1)", "setting": "male mice of OF1 strain [2]; morphine 10 mg/kg SC conditioning, relative to the saline solution group", "result": "Place preference is observed"},
      {"measurement": "conditioned place preference (test 2)", "setting": "male mice of OF1 strain [2]; morphine-conditioned mice, amisulpride 20 mg/kg IP twice a day for 5 days, RB101 IV on the day of test 2 (sixth day), or no such treatment, relative to control group", "result": "tendency toward persistence of the place preference"},
      {"measurement": "conditioned place preference (test 3)", "setting": "male mice of OF1 strain [2]; morphine-conditioned mice, four days after test 2, no RB101 on the day of test 3, with or without prior amisulpride+RB101 treatment", "result": "A place preference is found"}
    ]},
    {"compound": "CCC(=O)C(CC(C)N(C)C)(c1ccccc1)c1ccccc1", "note": "(stereo not drawn) [methadone, Methadone hydrochloride]", "values": [
      {"measurement": "effect of the substance alone on locomotor activity in mice (literature)", "setting": "male mice of OF1 strain [3]", "result": "hyperlocomotor activity"},
      {"measurement": "analgesia of methadone alone in the hotplate test", "setting": "male mice of OF1 strain [4]; 0.25 mg/kg, IV", "result": "pronounced analgesia"},
      {"measurement": "effect of methadone alone in locomotor activity", "setting": "male mice of OF1 strain [1]; 0.25 mg/kg, IV", "result": "did not show a significant effect"},
      {"measurement": "effect of methadone alone in forced swimming", "setting": "male mice of OF1 strain [5]", "result": "did not show a significant effect"}
    ]},
    {"compound": "CSCC[C@H](N)CSSCC(Cc1ccccc1)C(=O)N[C@@H](Cc1ccccc1)C(=O)OCc1ccccc1", "note": "(stereo partly drawn) [RB101]", "values": [
      {"measurement": "effect of the substance alone on locomotor activity in mice (literature)", "setting": "male mice of OF1 strain [3]", "result": "increase in locomotor activity"},
      {"measurement": "percentage of analgesia (hotplate, jumping lag time)", "setting": "male mice of OF1 strain [4]; RB101 5 mg/kg IV on the day of the test, alone or after amisulpride treatment for five days (20 mg/kg IP twice/day)", "result": "38.4%±10.8%"},
      {"measurement": "percentage of analgesia (hotplate, jumping lag time)", "setting": "male mice of OF1 strain [4]; RB101 dose effect, 5 mg/kg intravenously, 10 minutes before the test, mean ±sem", "result": "45.2%±10.6%"},
      {"measurement": "effect of RB101 alone on immobile time in forced swimming (literature)", "setting": "male mice of OF1 strain [6]", "result": "reduces the immobile time"}
    ]}
  ]
}
